According to paper PMC11206519, “Multi-Endpoint Toxicological Assessment of Chrysin Loaded Oil-in-Water Emulsion System in Different Biological Models” (Nanomaterials, 2024):

Legend:
S. typhimurium TA 98 = assay: Ames test, mutagenicity; type: cell-based, Salmonella Typhimurium
Procedure: (§1) The S. typhimurium strains TA 98 and TA 100 were used to detect frameshift and base-pair mutations, respectively. […] Then, they were poured onto minimal glucose agar containing a trace amount of histidine, following incubation at 37 °C for 48 h. Then, the revertant colonies were counted and compared with the negative control. If the number of revertant colonies in the tested sample treatment is at least twice that of the negative control (spontaneous revertant colonies), it is considered a mutagen.

S. typhimurium TA 100 = assay: Ames test, mutagenicity; type: cell-based, Salmonella Typhimurium
Procedure: as §1

Sprague Dawley rats = settings: ref 45 (Yao et al.), cited from earlier work
[1] = tested on: D. melanogaster trans-heterozygous mwh+/+flr3 larvae of the ST cross; assay: SMART wing spot test, anti-mutagenicity, ST cross
Procedure: The somatic mutation and recombination test, or the wing spot test, using D. melanogaster was employed as an in vivo system to assess the mutagenicity and anti-mutagenicity of chrysin-ES. Two different crosses were conducted: (i) a standard cross (ST) and (ii) a high bioactivation cross (HB). The standard cross larvae were obtained from virgin female of flr3/TM3, Ser crossed with males of mwh/mwh, while the HB cross larvae expressing cytochrome P450 enzymes involved in xenobiotic biotransformation were obtained from virgin females of ORR/ORR; flr^3/In (3LR) TM3, ri p^psep l (3)89Aa bx^34e e Bd^s crossed with males of mwh/mwh. The flies were cultured at a constant temperature of 25 ± 1 °C and 60–70% RH at photoperiod 12:12 (light/dark). To evaluate the mutagenicity of chrysin and chrysin-ES, a hundred larva F1 progenies derived from the above crossing were fed with instant Drosophila medium (Formula 4-24®), Carolina, Burlington, NC, USA) containing chrysin or chrysin-ES (20–120 µg/mL). DI was used as a negative control, while 20 mM urethane (URE) was used as a positive control. The larvae were reared on each medium until pupation at 25 °C. After that, forty wings of surviving flies in each group were collected for mutant analysis. The mutant spots on the wings, including small single spots, large single spots, and twin spots, were counted. The statistical significance was calculated as previously described by Frei and Würgler.
Furthermore, the anti-mutagenicity of the samples was performed by a similar procedure as mentioned above.

[2] = NMU (sodium nitrite 36 mM: methylurea 10 mM) + 20 μg/mL

O=c1cc(-c2ccccc2)oc2cc(O)cc(O)c12 [Chrysin, 5,7-dihydroxyflavone]
Number of Revertant Colonies (S. typhimurium TA 98; +S9, 5.7 µM/plate): 27 ± 7 | Number of Revertant Colonies (S. typhimurium TA 98; +S9, 11.4 µM/plate): 26 ± 8 | Number of Revertant Colonies (S. typhimurium TA 98; +S9, 22.8 µM/plate): 27 ± 8 | mutagenicity in the Ames test (S. typhimurium TA 98; TA98 and TA100, presence and absence of metabolic activation): did not induce mutations | Number of Revertant Colonies (S. typhimurium TA 98; −S9, 5.7 µM/plate): 22 ± 6 | Number of Revertant Colonies (S. typhimurium TA 98; −S9, 11.4 µM/plate): 23 ± 5 | Number of Revertant Colonies (S. typhimurium TA 98; −S9, 22.8 µM/plate): 23 ± 7 | Number of Revertant Colonies (S. typhimurium TA 100; +S9, 5.7 µM/plate): 136 ± 12 | Number of Revertant Colonies (S. typhimurium TA 100; +S9, 11.4 µM/plate): 131 ± 7 | Number of Revertant Colonies (S. typhimurium TA 100; +S9, 22.8 µM/plate): 136 ± 8 | Number of Revertant Colonies (S. typhimurium TA 100; −S9, 5.7 µM/plate): 120 ± 6 | Number of Revertant Colonies (S. typhimurium TA 100; −S9, 11.4 µM/plate): 115 ± 7 | Number of Revertant Colonies (S. typhimurium TA 100; −S9, 22.8 µM/plate): 117 ± 4 | mortality (Sprague Dawley rats; single oral 5000 mg/kg BW): 40% | LD50 (Sprague Dawley rats; single oral administration): ~5000 mg/kg BW | inhibition of MMC mutagenicity ([1]; 40–80 µg/mL): approximately 30% | Inhibition (%) ([1]; EMS 5 mM + 20 μg/mL): 19% | Inhibitory Classification ([1]; EMS 5 mM + 20 μg/mL): Negligible | Mutant spots per individual (number of spots), Large Single ([1]; EMS 5 mM + 20 μg/mL): 1.28 (51) | Mutant spots per individual (number of spots), Small Single ([1]; EMS 5 mM + 20 μg/mL): 4.88 (195) | Mutant spots per individual (number of spots), Total ([1]; EMS 5 mM + 20 μg/mL): 6.35 (254) | Mutant spots per individual (number of spots), Twin ([1]; EMS 5 mM + 20 μg/mL): 0.20 (8) | Inhibition (%) ([1]; EMS 5 mM + 40 μg/mL): 46% | Inhibitory Classification ([1]; EMS 5 mM + 40 μg/mL): Moderate | Mutant spots per individual (number of spots), Large Single ([1]; EMS 5 mM + 40 μg/mL): 0.93 (37) | Mutant spots per individual (number of spots), Total ([1]; EMS 5 mM + 40 μg/mL): 4.20 (168) | Mutant spots per individual (number of spots), Twin ([1]; EMS 5 mM + 40 μg/mL): 0.35 (14) | Inhibition (%) ([1]; EMS 5 mM + 80 μg/mL): 49% | Inhibitory Classification ([1]; EMS 5 mM + 80 μg/mL): Moderate | Mutant spots per individual (number of spots), Large Single ([1]; EMS 5 mM + 80 μg/mL): 0.35 (14) | Mutant spots per individual (number of spots), Small Single ([1]; EMS 5 mM + 80 μg/mL): 3.50 (140) | Mutant spots per individual (number of spots), Total ([1]; EMS 5 mM + 80 μg/mL): 3.95 (158) | Mutant spots per individual (number of spots), Twin ([1]; EMS 5 mM + 80 μg/mL): 0.10 (4) | Inhibition (%) ([1]; EMS 5 mM + 120 μg/mL): 42% | Inhibitory Classification ([1]; EMS 5 mM + 120 μg/mL): Moderate | Mutant spots per individual (number of spots), Large Single ([1]; EMS 5 mM + 120 μg/mL): 0.88 (35) | Mutant spots per individual (number of spots), Small Single ([1]; EMS 5 mM + 120 μg/mL): 3.40 (136) | Mutant spots per individual (number of spots), Total ([1]; EMS 5 mM + 120 μg/mL): 4.55 (182) | Mutant spots per individual (number of spots), Twin ([1]; EMS 5 mM + 120 μg/mL): 0.28 (11) | Inhibition (%) ([1]; MMC 0.05 mM + 20 μg/mL): −1% | Mutant spots per individual (number of spots), Large Single ([1]; MMC 0.05 mM + 20 μg/mL): 1.45 (58) | Mutant spots per individual (number of spots), Small Single ([1]; MMC 0.05 mM + 20 μg/mL): 8.05 (322) | Mutant spots per individual (number of spots), Total ([1]; MMC 0.05 mM + 20 μg/mL): 9.85 (394) | Mutant spots per individual (number of spots), Twin ([1]; MMC 0.05 mM + 20 μg/mL): 0.35 (14) | Inhibition (%) ([1]; MMC 0.05 mM + 40 μg/mL): 30% | Inhibitory Classification ([1]; MMC 0.05 mM + 40 μg/mL): Weak | Mutant spots per individual (number of spots), Large Single ([1]; MMC 0.05 mM + 40 μg/mL): 1.35 (54) | Mutant spots per individual (number of spots), Small Single ([1]; MMC 0.05 mM + 40 μg/mL): 4.98 (199) | Mutant spots per individual (number of spots), Total ([1]; MMC 0.05 mM + 40 μg/mL): 6.85 (274) | Mutant spots per individual (number of spots), Twin ([1]; MMC 0.05 mM + 40 μg/mL): 0.53 (21) | Inhibition (%) ([1]; MMC 0.05 mM + 80 μg/mL): 30% | Inhibitory Classification ([1]; MMC 0.05 mM + 80 μg/mL): Weak | Mutant spots per individual (number of spots), Large Single ([1]; MMC 0.05 mM + 80 μg/mL): 1.63 (65) | Mutant spots per individual (number of spots), Small Single ([1]; MMC 0.05 mM + 80 μg/mL): 4.48 (179) | Mutant spots per individual (number of spots), Total ([1]; MMC 0.05 mM + 80 μg/mL): 6.83 (273) | Mutant spots per individual (number of spots), Twin ([1]; MMC 0.05 mM + 80 μg/mL): 0.73 (29) | Inhibition (%) ([1]; MMC 0.05 mM + 120 μg/mL): 77% | Inhibitory Classification ([1]; MMC 0.05 mM + 120 μg/mL): Strong | Mutant spots per individual (number of spots), Large Single ([1]; MMC 0.05 mM + 120 μg/mL): 0.58 (23) | Mutant spots per individual (number of spots), Small Single ([1]; MMC 0.05 mM + 120 μg/mL): 1.50 (60) | Mutant spots per individual (number of spots), Total ([1]; MMC 0.05 mM + 120 μg/mL): 2.25 (90) | Mutant spots per individual (number of spots), Twin ([1]; MMC 0.05 mM + 120 μg/mL): 0.18 (7) | Inhibition (%) ([1]; MMC 0.05 mM + 120 μg/mL, listed as chrysin): approximately 77% | Inhibition (%) [1, 2]: 89% | Inhibitory Classification [1, 2]: Strong | Mutant spots per individual (number of spots), Large Single [1, 2]: 0.03 (1) | Mutant spots per individual (number of spots), Small Single [1, 2]: 0.15 (6) | Mutant spots per individual (number of spots), Total [1, 2]: 0.23 (9) | Mutant spots per individual (number of spots), Twin [1, 2]: 0.05 (2) | Inhibition (%) ([1]; NMU + 40 μg/mL): 91% | Inhibitory Classification ([1]; NMU + 40 μg/mL): Strong | Mutant spots per individual (number of spots), Large Single ([1]; NMU + 40 μg/mL): 0 (0) | Mutant spots per individual (number of spots), Small Single ([1]; NMU + 40 μg/mL): 0.18 (7) | Mutant spots per individual (number of spots), Total ([1]; NMU + 40 μg/mL): 0.18 (7) | Mutant spots per individual (number of spots), Twin ([1]; NMU + 40 μg/mL): 0 (0) | Inhibition (%) ([1]; NMU + 80 μg/mL): 91% | Inhibitory Classification ([1]; NMU + 80 μg/mL): Strong | Mutant spots per individual (number of spots), Large Single ([1]; NMU + 80 μg/mL): 0 (0) | Mutant spots per individual (number of spots), Small Single ([1]; NMU + 80 μg/mL): 0.18 (7) | Mutant spots per individual (number of spots), Total ([1]; NMU + 80 μg/mL): 0.18 (7) | Mutant spots per individual (number of spots), Twin ([1]; NMU + 80 μg/mL): 0 (0) | Inhibition (%) ([1]; NMU + 120 μg/mL): 90% | Inhibitory Classification ([1]; NMU + 120 μg/mL): Strong | Mutant spots per individual (number of spots), Large Single ([1]; NMU + 120 μg/mL): 0.08 (3) | Mutant spots per individual (number of spots), Small Single ([1]; NMU + 120 μg/mL): 0.13 (5) | Mutant spots per individual (number of spots), Total ([1]; NMU + 120 μg/mL): 0.20 (8) | Mutant spots per individual (number of spots), Twin ([1]; NMU + 120 μg/mL): 0 (0) | Inhibition (%) ([1]; URE 20 mM + 20 μg/mL): 94% | Inhibitory Classification ([1]; URE 20 mM + 20 μg/mL): Strong | Mutant spots per individual (number of spots), Large Single ([1]; URE 20 mM + 20 μg/mL): 0 (0) | Mutant spots per individual (number of spots), Small Single ([1]; URE 20 mM + 20 μg/mL): 0.23 (9) | Mutant spots per individual (number of spots), Total ([1]; URE 20 mM + 20 μg/mL): 0.23 (9) | Mutant spots per individual (number of spots), Twin ([1]; URE 20 mM + 20 μg/mL): 0 (0) | Inhibition (%) ([1]; URE 20 mM + 40 μg/mL): 91% | Inhibitory Classification ([1]; URE 20 mM + 40 μg/mL): Strong | Mutant spots per individual (number of spots), Large Single ([1]; URE 20 mM + 40 μg/mL): 0.03 (1) | Mutant spots per individual (number of spots), Small Single ([1]; URE 20 mM + 40 μg/mL): 0.33 (13) | Mutant spots per individual (number of spots), Total ([1]; URE 20 mM + 40 μg/mL): 0.35 (14) | Mutant spots per individual (number of spots), Twin ([1]; URE 20 mM + 40 μg/mL): 0 (0) | Inhibition (%) ([1]; URE 20 mM + 80 μg/mL): 91% | Inhibitory Classification ([1]; URE 20 mM + 80 μg/mL): Strong | Mutant spots per individual (number of spots), Large Single ([1]; URE 20 mM + 80 μg/mL): 0 (0) | Mutant spots per individual (number of spots), Small Single ([1]; URE 20 mM + 80 μg/mL): 0.35 (14) | Mutant spots per individual (number of spots), Total ([1]; URE 20 mM + 80 μg/mL): 0.35 (14) | Mutant spots per individual (number of spots), Twin ([1]; URE 20 mM + 80 μg/mL): 0 (0) | Inhibition (%) ([1]; URE 20 mM + 120 μg/mL): 86% | Inhibitory Classification ([1]; URE 20 mM + 120 μg/mL): Strong | Mutant spots per individual (number of spots), Large Single ([1]; URE 20 mM + 120 μg/mL): 0.03 (1) | Mutant spots per individual (number of spots), Small Single ([1]; URE 20 mM + 120 μg/mL): 0.55 (22) | Mutant spots per individual (number of spots), Total ([1]; URE 20 mM + 120 μg/mL): 0.56 (23) | Mutant spots per individual (number of spots), Twin ([1]; URE 20 mM + 120 μg/mL): 0 (0)
